Tests used:
ISC-enriched organoids [1] = assay: Primary screen, 384-well 2.5-D organoid differentiation (ENR+CD, 6 days): carbachol-induced lysozyme secretion (LYZ.S); type: cell-based, murine; conditions: for Dose.FC.LYZ.S: primary screen, ENR+CD 6 days, FC vs plate median; for Dose.FC.LYZ.S (log 2 fold change, carbachol-induced lysozyme secretion): vs plate median
Text: (§1) High-throughput screening.

ISC-enriched organoids [2] = assay: Primary screen, 384-well 2.5-D organoid differentiation (ENR+CD, 6 days): basal lysozyme secretion (LYZ.NS); type: cell-based, murine; conditions: for Dose.FC.LYZ.NS / Z.LYZ.NS: primary screen; for Dose.FC.LYZ.NS: ENR+CD 6 days, FC vs plate median; for Z.LYZ.NS: standard z score of FC; for Dose.FC.LYZ.NS (log 2 fold change, basal lysozyme secretion): vs plate median
Text: as §1

ISC-enriched organoids [3] = assay: Primary screen, 384-well 2.5-D organoid differentiation (ENR+CD, 6 days, Target Selective Inhibitor Library, vs whole-plate median): ATP (CellTiter-Glo 3D, CTG); conditions: for Dose.FC.CTG / Z.CTG: primary screen; for Dose.FC.CTG: ENR+CD 6 days, FC vs plate median; for Z.CTG: standard z score of FC; for Dose.FC.CTG (log 2 fold change, ATP): vs plate median
[4] = dose 0.08 uM (1st of 4 lines per treatment; dose not printed in this part)
[5] = dose 0.40 uM (2nd of 4 lines per treatment; dose not printed in this part)
[6] = dose 2.00 uM (3rd of 4 lines per treatment; dose not printed in this part)
[7] = dose 10.00 uM (4th of 4 lines per treatment; dose not printed in this part)

| Structure (SMILES) | Dose.FC.LYZ.S (ISC-enriched organoids [1]; dose 0.08 uM) | Dose.FC.LYZ.S (ISC-enriched organoids [1]; dose 0.40 uM) | Dose.FC.LYZ.S (ISC-enriched organoids [1]; dose 2.00 uM) | Dose.FC.LYZ.S (ISC-enriched organoids [1]; dose 10.00 uM) | Dose.FC.LYZ.NS (ISC-enriched organoids [2]; dose 0.08 uM) | Z.LYZ.NS (ISC-enriched organoids [2]; dose 0.08 uM) | Dose.FC.LYZ.NS (ISC-enriched organoids [2]; dose 0.40 uM) | Z.LYZ.NS (ISC-enriched organoids [2]; dose 0.40 uM) | Dose.FC.LYZ.NS (ISC-enriched organoids [2]; dose 2.00 uM) | Z.LYZ.NS (ISC-enriched organoids [2]; dose 2.00 uM) | Dose.FC.LYZ.NS (ISC-enriched organoids [2]; dose 10.00 uM) | Z.LYZ.NS (ISC-enriched organoids [2]; dose 10.00 uM) | Dose.FC.CTG (ISC-enriched organoids [3]; dose 0.08 uM) | Z.CTG (ISC-enriched organoids [3]; dose 0.08 uM) | Dose.FC.CTG (ISC-enriched organoids [3]; dose 0.40 uM) | Z.CTG (ISC-enriched organoids [3]; dose 0.40 uM) | Dose.FC.CTG (ISC-enriched organoids [3]; dose 2.00 uM) | Z.CTG (ISC-enriched organoids [3]; dose 2.00 uM) | Dose.FC.CTG (ISC-enriched organoids [3]; dose 10.00 uM) | Z.CTG (ISC-enriched organoids [3]; dose 10.00 uM) | also measured |
| --- | --- | --- | --- | --- | --- | --- | --- | --- | --- | --- | --- | --- | --- | --- | --- | --- | --- | --- | --- | --- | --- |
| C[C@H]1COC2(CCN(c3nc(=O)c4cc(C(F)(F)F)cc([N+](=O)[O-])c4s3)CC2)O1 (racemic) [BTZ043 Racemate] | 0.199 log 2 fold change | 0.252 log 2 fold change | 0.038 log 2 fold change | 0.070 log 2 fold change | 0.131 log 2 fold change | 1.138 | 0.186 log 2 fold change | 1.619 | 0.089 log 2 fold change | 0.776 | 0.100 log 2 fold change | 0.870 | 0.497 log 2 fold change | 1.187 | 0.545 log 2 fold change | 1.303 | 0.063 log 2 fold change | 0.150 | 0.327 log 2 fold change | 0.782 | – |
| Cl.N[C@@H]1C[C@H]1c1ccccc1 (racemic) [Tranylcypromine (2-PCPA) HCl] | – | – | – | – | – | – | – | – | – | – | – | – | – | – | – | – | – | – | – | – | Dose.FC.LYZ.S (log 2 fold change, carbachol-induced lysozyme secretion) (ISC-enriched organoids [1]; dose 0.08 uM): 0.050; Dose.FC.LYZ.S (log 2 fold change, carbachol-induced lysozyme secretion) (ISC-enriched organoids [1]; dose 0.40 uM): −0.037; Dose.FC.LYZ.S (log 2 fold change, carbachol-induced lysozyme secretion) (ISC-enriched organoids [1]; dose 2.00 uM): 0.036; Dose.FC.LYZ.S (log 2 fold change, carbachol-induced lysozyme secretion) (ISC-enriched organoids [1]; dose 10.00 uM): −0.096; Z.LYZ.NS (standard z score) (ISC-enriched organoids [2]; dose 0.08 uM): 0.285; Dose.FC.LYZ.NS (log 2 fold change, basal lysozyme secretion) (ISC-enriched organoids [2]; dose 0.08 uM): 0.033; Z.LYZ.NS (standard z score) (ISC-enriched organoids [2]; dose 0.40 uM): −0.426; Dose.FC.LYZ.NS (log 2 fold change, basal lysozyme secretion) (ISC-enriched organoids [2]; dose 0.40 uM): −0.049; Z.LYZ.NS (standard z score) (ISC-enriched organoids [2]; dose 2.00 uM): 0.423; Dose.FC.LYZ.NS (log 2 fold change, basal lysozyme secretion) (ISC-enriched organoids [2]; dose 2.00 uM): 0.049; Z.LYZ.NS (standard z score) (ISC-enriched organoids [2]; dose 10.00 uM): −0.389; Dose.FC.LYZ.NS (log 2 fold change, basal lysozyme secretion) (ISC-enriched organoids [2]; dose 10.00 uM): −0.045; Z.CTG (standard z score) (ISC-enriched organoids [3]; dose 0.08 uM): −0.153; Dose.FC.CTG (log 2 fold change, ATP) (ISC-enriched organoids [3]; dose 0.08 uM): −0.064; Z.CTG (standard z score) (ISC-enriched organoids [3]; dose 0.40 uM): 0.148; Dose.FC.CTG (log 2 fold change, ATP) (ISC-enriched organoids [3]; dose 0.40 uM): 0.062; Z.CTG (standard z score) (ISC-enriched organoids [3]; dose 2.00 uM): 0.128; Dose.FC.CTG (log 2 fold change, ATP) (ISC-enriched organoids [3]; dose 2.00 uM): 0.053; Z.CTG (standard z score) (ISC-enriched organoids [3]; dose 10.00 uM): −1.274; Dose.FC.CTG (log 2 fold change, ATP) (ISC-enriched organoids [3]; dose 10.00 uM): −0.533 |
| COc1cc2c(cc1O)CC[C@@H]1[C@@H]2CC[C@]2(C)[C@@H](O)CC[C@@H]12 [2-Methoxyestradiol (2-MeOE2)] | 0.189 log 2 fold change | 0.270 log 2 fold change | 0.029 log 2 fold change | −0.278 log 2 fold change | 0.021 log 2 fold change | 0.186 | 0.065 log 2 fold change | 0.566 | 0.005 log 2 fold change | 0.041 | −0.139 log 2 fold change | −1.209 | 0.299 log 2 fold change | 0.714 | 0.401 log 2 fold change | 0.957 | 0.227 log 2 fold change | 0.543 | −0.672 log 2 fold change | −1.606 | SSMD.LYZ.S_Rep (strictly standardized mean difference) (ISC-enriched organoids [1]; [4]): 1.015; Z.LYZ.S (standard z score) (ISC-enriched organoids [1]; [4]): 1.224; SSMD.LYZ.S_Rep (strictly standardized mean difference) (ISC-enriched organoids [1]; [5]): 0.831; Z.LYZ.S (standard z score) (ISC-enriched organoids [1]; [5]): 1.747; SSMD.LYZ.S_Rep (strictly standardized mean difference) (ISC-enriched organoids [1]; [6]): 0.144; Z.LYZ.S (standard z score) (ISC-enriched organoids [1]; [6]): 0.190; SSMD.LYZ.S_Rep (strictly standardized mean difference) (ISC-enriched organoids [1]; [7]): −1.135; Z.LYZ.S (standard z score) (ISC-enriched organoids [1]; [7]): −1.795; SSMD.LYZ.NS_Rep (strictly standardized mean difference) (ISC-enriched organoids [2]; [4]): 0.077; SSMD.LYZ.NS_Rep (strictly standardized mean difference) (ISC-enriched organoids [2]; [5]): 0.227; SSMD.LYZ.NS_Rep (strictly standardized mean difference) (ISC-enriched organoids [2]; [6]): 0.049; SSMD.LYZ.NS_Rep (strictly standardized mean difference) (ISC-enriched organoids [2]; [7]): −0.826; SSMD.CTG_Rep (strictly standardized mean difference) (ISC-enriched organoids [3]; [4]): 0.407; SSMD.CTG_Rep (strictly standardized mean difference) (ISC-enriched organoids [3]; [5]): 0.930; SSMD.CTG_Rep (strictly standardized mean difference) (ISC-enriched organoids [3]; [6]): 0.461; SSMD.CTG_Rep (strictly standardized mean difference) (ISC-enriched organoids [3]; [7]): −0.878 |
